Columns and labels:
DnaK = DnaK (Escherichia coli, UniProt P0A6Y8); assay: Identification of B-PES interacting protein in bacteria by LC-tandem MS; conditions: E. coli DH5α, 50 μM B-PES, 3 h
p62/SQSTM1, LC3 = assay: Autophagy markers in cultured cells (vacuoles, LC3-II, p62/SQSTM1, electron microscopy); format: cell-based, human
cathepsin L = assay: Western blot of cathepsin L processing; format: cell-based, human; conditions: 20 μM, 24 h
[1] = system: H1299 and FaDu; 6113 and WI38; assay: MTT assay, tumorogenic versus normal fibroblast cell lines; format: cell-based, human; conditions: various concentrations, 48 hours
Description: H1299 cells were seeded on […] and treated with 10 μM PES or 10 μM PES-Cl. DMSO treated cells were used as a control and the proliferation of the H1299 cells was observed over 24 and 48 hours of treatment. The cells were imaged by light microscopy with 20× magnification (FIG. 28). Non-tumorogenic and tumorogenic cells were then treated with PES-Cl to observe its toxicity and effect on proliferation. Two tumorogenic cell lines (H1299 and FaDu) and two normal fibroblast cell lines (6113 and WI38) were seeded on a 96-well plate. The cells were treated with various concentrations of PES and PES-Cl. Forty-eight hours post-treatment MTT assays (Cayman Chemical Company) were performed (FIG. 29).

20S proteasome = assay: Cell-based 20S proteasome activity assay; parameters: species or system human; conditions: H1299 or A875 cells; PES 20 μM, 17-AAG 1 μM, CQ 5 μM
NF-κB = assay: NF-κB-dependent luciferase reporter in H1299 cells; format: cell-based, human
Description: FIG. 4. PES Interferes with HSP70 Actions. […] (B) IP-WB analyses of WCE from PES-treated U2OS osteosarcoma cells reveal a lower bundance of HSP70 complexes containing BAG-1M or APAF1. […] Note evidence of caspase cleavage in cisplatin-treated cells, but not in the presence of PES. […] (D) (left) H1299 cells were transfected with a NF-κB-dependent luciferase reporter. 24 h later, cells were either pretreated with DMSO or the indicated amount of PES for 1 h, followed by the addition of 20 ng/ml of TNFα for 5 h, as specified. Each graphical representation indicates the mean±SD of at least three independent cultures relative to control (DMSO-treated) cells. (right) H1299 cells were treated with 20 μM PES for 5.7 h, followed by treatment with 10 ng/ml TNFα for 20 min. WCE were immunoblotted for the proteins indicated.

Chain of DnaK (P0A6Y8 whole entry): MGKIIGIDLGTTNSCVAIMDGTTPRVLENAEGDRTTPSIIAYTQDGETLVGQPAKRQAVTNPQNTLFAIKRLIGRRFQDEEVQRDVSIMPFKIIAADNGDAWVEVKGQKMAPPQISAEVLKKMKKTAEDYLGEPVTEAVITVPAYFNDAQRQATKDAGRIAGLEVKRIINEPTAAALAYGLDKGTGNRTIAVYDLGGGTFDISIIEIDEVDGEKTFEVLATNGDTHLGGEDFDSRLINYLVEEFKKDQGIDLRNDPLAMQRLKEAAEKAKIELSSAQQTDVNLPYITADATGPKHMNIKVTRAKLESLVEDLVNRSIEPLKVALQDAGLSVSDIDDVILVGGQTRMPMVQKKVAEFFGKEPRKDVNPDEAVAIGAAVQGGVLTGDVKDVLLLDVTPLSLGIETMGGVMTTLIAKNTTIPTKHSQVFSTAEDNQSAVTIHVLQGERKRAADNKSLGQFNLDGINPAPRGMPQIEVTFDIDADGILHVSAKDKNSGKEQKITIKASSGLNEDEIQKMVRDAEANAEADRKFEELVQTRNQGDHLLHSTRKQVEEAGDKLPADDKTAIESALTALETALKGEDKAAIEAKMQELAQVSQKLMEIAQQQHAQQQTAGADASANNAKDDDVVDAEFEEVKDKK

Structure (SMILES): NS(=O)(=O)C#Cc1ccccc1 [PES, 2-Phenylethynesulfonamide]
- interaction with DnaK (DnaK): interacts with DnaK
- LC3-II level (p62/SQSTM1, LC3; 20 μM): higher levels of LC3-II
- autophagosomes and autophagolysosomes by electron microscopy (p62/SQSTM1, LC3; 20 μM, 7 or 24 h): rapid and substantial increase in multiple double-membrane autophagosomes and single-membrane autophagolysosomes
- intracytoplasmic vacuoles (p62/SQSTM1, LC3; 24 h): progressive accumulation of intracytoplasmic vacuoles
- p62/SQSTM1 oligomers in soluble and detergent-insoluble fractions (p62/SQSTM1, LC3; 24 h, PES 20 μM, Velcade 100 nM, CQ 50 μM, 17-AAG 15 nM): higher molecular weight forms of p62/SQSTM1 in both the soluble and detergent-insoluble fractions
- p62/SQSTM1 accumulation and oligomerization (p62/SQSTM1, LC3; H1299 cells, increasing concentrations, 24 h): notable increase in p62/SQSTM1 accumulation and oligomerization
- p62 oligomerization and LC3-II accumulation (p62/SQSTM1, LC3; IMR90 cells, 24 h): only a modest degree of p62 oligomerization and LC3-II accumulation
- interaction between LC3 and p62/SQSTM1 (p62/SQSTM1, LC3; IP-WB, MiaPaCa2, A875): enhanced the interaction
- accumulation and oligomerization of p62/SQSTM1 (p62/SQSTM1, LC3; western blot): promotes an accumulation and oligomerization of p62/SQSTM1 in a time- and dose-dependent manner
- processing of cathepsin L (cathepsin L): accumulation of the precursor pro-cathepsin L and a markedly reduced abundance of the smaller, mature form of the enzyme
- cell survival, tumorogenic versus non-tumorogenic cells [1]: greater concentration dependent effect on cell survival in tumorogenic cells
- activity of the 20S proteasome (20S proteasome): impairs the activity of the 20S proteasome
- unstimulated NF-κB activity (NF-κB): inhibited unstimulated NF-κB activity in a dose-dependent manner
- NF-κB activation stimulated by TNFα (NF-κB; TNFα): inhibited NF-κB activation

— patent US9296687B2, “Modulators of HSP70/DnaK function and methods of use thereof” (The Trustees of the University of Pennsylvania, priority 2008, dated 2016)
